Reference: patent US9005962B2, “Regionalised endoderm cells and uses thereof” (The University Court of the University of Edinburgh, priority 2007, dated 2015)

What was measured:
Hex^RS ES cells [1] = assay: ADE (H+C+) induction, two-step suspension (embryoid body) differentiation with serum day 0-2, flow cytometry for RS and Cxcr4; assay type: cell-based, mouse
Description: ADE was induced under serum-containing conditions using a 2-step protocol. ES cells were seeded onto non-coated 10 cm petri dishes (sterilin) at a density of 5×10^3 cells/ml in Glasgow minimum essential medium (G-MEM; GIBCO-BRL) supplemented with 10% fetal calf serum (FCS), 0.1 mM nonessential amino acids (GIBCO-BRL), 1 mM sodium pyruvate, 2 mM glutamine and 0.1 mM 2-mercaptoethanol (2ME). Following 2 days of culture the resulting embryoid bodies (EBs) were harvested by centrifugation at 500 rpm for 1 min and replated on 10 cm non-coated petri dishes at the same density in N2B27 culture medium (StemCellSciences) supplemented with 20 ng/ml activin A (R&D). The media was replaced 2 days later and then every 3 days for the duration of the experiment. For some experiments 20 ng/ml EGF, 10 ng/ml Bmp4, 20 ng/ml activin A (R&D), 1×10^−5M all-trans retinoic acid (Sigma) and 3 μM CHIR99021 (a gift from StemCellSciences) were added to the culture at the indicated timepoints.
(§1) FITC-conjugated rat anti-CD184 (CXCR4), FITC-conjugated rat anti-CD31 and FITC conjugated rat anti-CD45 were purchased from BD Pharmingen. EBs generated under various different differentiation conditions were dissociated by treatment with cell dissociation buffer (PBS based) (GIBCO-BRL). Cells were washed in PBS supplemented with 10% FCS (FB) and resuspended at a maximum density of 5×10^6 cells/ml. For surface staining 200 μl of cells were plated in a V shape 96 well polystyrene plate (Sterilin) in PBS supplemented with 1% serum of the species in which the antibody was manufactured. The FITC-conjugated antibody or a FITC-conjugated isotype control was added at a 1:100 dilution. Cells were incubated in the dark for 20 mins, washed 3 times with FB and resuspended in FB supplemented with Topro3-iodide (Invitrogen) to exclude dead cell from the analysis. Cells were analysed using a FACS Calibur (BD Biosciences) or sorted using a MoFlo MLS flow cytometer (DakoCytomation).
Mouse ES cells were cultured according to Li et al., (1995). ADE was induced under serum-containing conditions using a 2-step protocol. ES cells were seeded onto non-coated 10 cm petri dishes (Sterilin) at a density of 5×10^3 cells/ml in GMEM supplemented as described in Li et al., (1995) except in the absence of LIF. EBs were harvested after two days by centrifugation and replated in N2B27 medium (StemCellSciences) supplemented with 20 ng/ml activin A (R&D) and 20 ng/ml EGF (R&D). This media was replaced again two days later. 10 ng/ml BMP4, 20 ng/ml activin A (R&D) and 1×10^−5M all-trans retinoic acid (Sigma) were added where indicated.
(§2) FITC-conjugated rat anti-CD184 (Cxcr4), FITC-conjugated rat anti-CD31 and FITC conjugated rat anti-CD45 were purchased from BD Pharmingen. Cells were stained with Topro3-iodide (Invitrogen) to exclude dead cells from the analysis. Cells were analysed using a FACS Calibur (BD Biosciences) or sorted using a MoFlo MLS flow cytometer (DakoCytomation).

Hex^RS ES cells [2] = assay: ADE (H+C+) induction, serum-free suspension (aggregation) culture, flow cytometry; assay type: cell-based
Description: For ADE induction under serum-free conditions in suspension culture, ES cells were seeded onto non-coated 10 cm Petri dishes at 5×10^3 cells/ml in N2B27 culture medium supplemented with 10 ng/ml Bmp4 and 20 ng/ml activin A. Following 2 days of culture the resulting EBs were harvested as above and replated on non-coated Petri dishes at the same density in SF03 culture medium (ref Tada 2005) supplemented with 20 ng/ml activin A and 20 ng/ml EGF. The media was replaced 2 days later and then every 3 days for the duration of the experiment. For some experiments 10 ng/ml Fgf4 (R&D), 10 ng/ml Bmp4, 20 ng/ml Activin A, 1×10^−5M all-trans retinoic acid, 100 ng/ml PD173074 (Sigma), 20 ng/ml EGF and 3 μM CHIR99021 were added to the culture at the indicated timepoints.
as §1, with “(DakoCytomation). […]” for “(DakoCytomation).”
FITC-conjugated rat anti-CD184 (Cxcr4), FITC-conjugated rat anti-CD31 and FITC conjugated rat anti-CD45 were purchased from BD Pharmingen. […] Cells were analysed using a FACS Calibur (BD Biosciences) or sorted using a MoFlo MLS flow cytometer (DakoCytomation).

Hex^RS ES cells [3] = assay: ADE (H+C+) induction, serum-free adherent monolayer culture, flow cytometry, RT-PCR and immunostaining; assay type: cell-based; settings: for ADE differentiation / ability to promote ADE formation: FIG. 25; for ADE differentiation: added to cultures for days 3-4 or days 3-7, PD173074 100 ng/ml, SU5402 25 μM; for ability to promote ADE formation: monolayer, FGFs at 10 ng/ml
Description: For ADE induction under serum-free conditions in adherent monolayer culture, ES cells were seeded onto gelatin coated 3 cm 6 well dishes (Iwaki) at a density of 1×10^4 cells/ml in N2B27 medium (StemCellSciences) supplemented with 10 ng/ml Bmp4, 20 ng/ml activin A and 10 ng/ml Fgf4. Following 2 days of culture the media was replaced with SF03 culture medium (Tada 2005) supplemented with 20 ng/ml activin A, 10 ng/ml Fgf4 and 20 ng/ml EGF. The media was replaced 2 days later and then every 3 days for the duration of the experiment. For some experiments 1×10^−5M all-trans retinoic acid, 100 ng/ml PD173074 and 3 μM CHIR99021 were added to the culture at the indicated timepoints.
as §1
Total RNA was prepared from a minimum of 1×10^4 cells from sorted cell fractions, EBs, monolayer differentiated cells or ES cells using Trizol reagent (Invitrogen). 1 μg of RNA was used as a template for cDNA synthesis using Superscript III (Invitrogen). Real-time RT-PCR was performed using a LightCycler 480 (Roche) and LightCycler 480 SYBR Green 1 Master (Roche). The following cycling conditions were used: denaturation: 95° C. 5 sec, amplification: 95° C. 5 sec, 58° C. 10 sec, 72° C. 20 sec (45 cycles), 81° C. 1 sec, melt: 95° C. 1 sec, 65° C. 10 sec, 95° C. −ramp 5 C per sec continuous, cool: […] 10 sec. Standard curves were generated from plasmid. Samples were normalized to β-actin or TATA-box binding protein (TBP) expression levels.
Sorted cells were seeded onto gelatin coated 24 well dishes (Iwaki). Adherence of cells to the substrate was enhanced by centrifugation at 1200 rpm for 3 mins. Sorted cells, monolayer differentiated cells and ES cells were washed in PBS, fixed in 4% paraformaldehyde for 10 mins and permeabilised by washing in PBS supplemented with 0.1% Triton X (PBST). Cells were treated with a blocking reagent (3% serum of same species as secondary antibody, 1% BSA in PBST) for 15 min before incubation with the primary antibody at 4° C. overnight. The cells were washed with PBST and incubated with the appropriate fluorescence-tagged secondary antibody for 2 hr at room temperature. The cells were washed with PBST and DAPI added during the final wash. The following primary antibodies were used, all are anti-mouse: anti-Oct3/4, anti-HNF-3β (Foxa2), anti-HNF-4α (Santa Cruz), anti-Cer11 (R&D), anti-E-cadherin (Takara Bio Inc) anti-alpha fetoprotein (NeoMarkers), anti-albumin (Bethyl laboratories inc). Anti-Pdx1 was a gift from P. Serup. […]
as §2

[4] = FGF signalling blocked for days 3-7
[5] = exogenous FGF4, defined monolayer culture (FIG. 22C, D)

Cc1c[nH]c(-c2cnc(NCCNc3ccc(C#N)cn3)nc2-c2ccc(Cl)cc2Cl)n1 [CHIR99021]
induction of the H+C+ cell population (Hex^RS ES cells [1]; addition at day 0-2, in the presence of serum): completely blocked
total number of surviving cells at the end of the 7 day differentiation (Hex^RS ES cells [2]; added during the first two days, serum-free, aggregation and monolayer (Table 7)): significantly increased
total number of H+C+ cells produced (Hex^RS ES cells [2]; serum-free differentiation (Table 7)): no or only very minor effects

CCN(CC)CCCCNc1ncc2cc(-c3cc(OC)cc(OC)c3)c(NC(=O)NC(C)(C)C)nc2n1 [PD173074, reference compound]
H+C+ and C+ populations (Hex^RS ES cells [3]; [4]): complete loss
cell survival / viability (Hex^RS ES cells [3]; [4]): dramatically compromised
ADE differentiation (Hex^RS ES cells [3]): inhibit ADE differentiation
generation of C+ and H+C+ populations (Hex^RS ES cells [3]; inhibitor present for the entire protocol): unable to generate either population
number of C+ and H+C+ cells (Hex^RS ES cells [3]; inhibitor present for the first two days of differentiation, then removed): reduced number

Cc1c[nH]c(/C=C2\C(=O)Nc3ccccc32)c1CCC(=O)O [SU5402, reference compound]
ADE differentiation (Hex^RS ES cells [3]): inhibit ADE differentiation

CC1=C(/C=C/C(C)=C/C=C/C(C)=C/C(=O)O)C(C)(C)CCC1 [retinoic acid, all-trans retinoic acid, reference compound]
induction of the RS positive population (Hex^RS ES cells [1]; added either at day 0 or day 3 (Table 2)): completely blocked
CXCR4 induction (Hex^RS ES cells [1]; added either at day 0 or day 3, data not shown): without effecting

FGF2: fibroblast growth factor, 10 ng/ml
ability to promote ADE formation (Hex^RS ES cells [3]): have the ability to promote ADE formation

B1: activin: secreted TGFβ ligand, activin A (R&D), 20 ng/ml (protein, UniProt P08476 311-426, looked up)
Inhibin beta A chain: GLECDGKVNICCKKQFFVSFKDIGWNDWIIAPSGYHANYCEGECPSHIAGTSGSSLSFHSTVINHYRMRGHSPFANLKSCCVPTKLRPMSMLYYDDGQNIIKKDIQNMIVEECGCS
modifications: Inhibin beta A chain
cells RS positive (Hex^RS ES cells [1]; day 7, serum containing media 48 hr, then serum free media supplemented with activin 5 days): 6.8-8.6%

B2: FGF10: fibroblast growth factor, 10 ng/ml (protein, UniProt O15520 38-208, looked up)
Fibroblast growth factor 10: QALGQDMVSPEATNSSSSSFSSPSSAGRHVRSYNHLQGDVRWRKLFSFTKYFLKIEKNGKVSGTKKENCPYSILEITSVEIGVVAVKAINSNYYLAMNKKGKLYGSKEFNNDCKLKERIEENGYNTYASFNWQHNGRQMYVALNGKGAPRRGQKTRRKNTSAHFLPMVVHS
ability to promote ADE formation (Hex^RS ES cells [3]): not

B3: FGF4: fibroblast growth factor, 10 ng/ml (R&D) (protein, UniProt P08620 31-206, looked up)
Fibroblast growth factor 4: APTAPNGTLEAELERRWESLVALSLARLPVAAQPKEAAVQSGAGDYLLGIKRLRRLYCNVGIGFHLQALPDGRIGGAHADTRDSLLELSPVERGVVSIFGVASRFFVAMSSKGKLYGSPFFTDECTFKEILLPNNYNAYESYKYPGMFIALSKNGKTKKGNRVSPTMKVTHFLPRL
H+C+ ADE (Hex^RS ES cells [3]; FIG. 22E, FGF4 added solely during the second phase of differentiation): up to 20%
ability to promote ADE formation (Hex^RS ES cells [3]): have the ability to promote ADE formation
number of CXCR4 expressing cells (Hex^RS ES cells [3]; addition of Fgf4, monolayer): did not increase
anterior markers Cer1 and Gsc (Hex^RS ES cells [3]; [5]): induction
expression of Foxa2 and Sox17 (Hex^RS ES cells [3]; [5]): increased
mesodermal and primitive streak gene expression (Hex^RS ES cells [3]; exogenous FGF4, defined monolayer culture (FIG. 22D)): suppressing
H+C+ cell number (Hex^RS ES cells [3]; monolayer cultures, inclusion in the differentiation protocol): doubled

B4: FGF5: fibroblast growth factor, 10 ng/ml (protein, UniProt P12034 21-268, looked up)
Fibroblast growth factor 5: HGEKRLAPKGQPGPAATDRNPRGSSSRQSSSSAMSSSSASSSPAASLGSQGSGLEQSSFQWSPSGRRTGSLYCRVGIGFHLQIYPDGKVNGSHEANMLSVLEIFAVSQGIVGIRGVFSNKFLAMSKKGKLHASAKFTDDCKFRERFQENSYNTYASAIHRTEKTGREWYVALNKRGKAKRGCSPRVKPQHISTHFLPRFKQSEQPELSFTVTVPEKKKPPSPIKPKIPLSAPRKNTNSVKYRLKFRFG
ability to promote ADE formation (Hex^RS ES cells [3]): not
